Structures are written as SMILES. Entries after “also recorded” stand apart in the source; their conditions may differ.

One assay concerns 5TGM1 tumors. Nature of the assay: IHC CD3 staining of tumors. It is filed as in vivo, mouse. As to conditions: tumors retrieved after one administration of the drugs. As for the experimental part: NOD/SCID and C57BL/KaLwRijHsd mice were subcutaneously (sc) injected with 1×10^6 5TGM1 either WT or Calr^KO cells in PBS. When tumor became measurable, mice were randomized to receive either PBS or BTZ administered intra peritoneally (i.p.) 0.5 mg/kg twice/week for 2 weeks. Tumor sizes were measured as previously described (46), and mice were sacrificed when tumors reached 2 cm in diameter or ulceration or major compromise in quality of life. A parallel experiment was performed to allow for tumor harvesting after two injections ip of BTZ for RNA-seq analysis, as detailed below. For BTZ and STING agonist combination studies, C57BL/KaLwRijHsd (n=5/group) and SCID/NOD (n=6/group) mice bearing 5TGM1 WT and C57BL/KaLwRijHsd mice (n=5/group) bearing 5TGM1 Sting^KO tumors were randomized to receive: PBS, BTZ (0.375 mg/kg twice a week for 2 weeks, i.p.), ADU-S100 (100 μg) administered in the peritumoral area (day 1 and 2), or a combination. Tumor sizes were measured as described above. A parallel experiment in C57BL/KaLwRijHsd mice was performed to allow for tumor harvesting after one administration of either BTZ or ADU-S100. Tumors were fixed in 10% formalin for 24 h, and then maintained in 70% ethanol prior to paraffin embedding and processing for IHC to detect CD3 (#nb600 Ab, Novus Bio).

The test system of assay [1] is 5TGM1 MM cells. Kind of assay: Phagocytosis assay of MM cells by JAWSII DCs. In kind it is cell-based, murine. As for the experimental part:
Mo-DCs were generated from CD14+ peripheral blood monocytes were positively selected using magnetic beads (Miltenyi Biotec) and cultured for 6 days in mo-DC differentiation medium containing GM-CSF and IL-4 (130-094-812; Miltenyi Biotec) to generate Mo-DCs. AMO1, KMS11 and H929 cells lines, as well as patient MM cells, were stained with CellTrace™ Far Red (ThermoFisher Scientific), cultured with or without BTZ (for 16 h), and then incubated in 48-well plates for 4 h at 1:1 ratio with CellTrace™ CFSE stained Mo-DCs. Cells were then collected, and phagocytosis analysis was performed by flow cytometry and confocal microscopy. Analagous phagocytosis experiments was performed using 5TGM1 murine MM and immature murine DC line JAWSII.
Collected cells were analyzed using the BD LRSFortessa™ X-20 flow cytometer. Mo-DCs that engulfed MM cells were CFSE and FAR-RED double positive. Fold increase in percentage of double positive DCs after co-culture with BTZ treated vs untreated MM cells was compared. […]
Flow cytometry-based assay: Collected cells were analyzed using the BD LRSFortessa X-20 flow cytometer. […]
Confocal microscopy-based assay: 5TGM1 cells (15000) were cytospun for 7 min at 300 rpm, fixed in 4% paraformaldehyde for 20 min at RT, and washed three times with 1% FBS in PBS. […] Slides were examined using Yokogawa Spinning Disk Confocal/TIRF System, and analyzed with ImageJ software.

Assay [2] has as its system 5TGM1 MM cells. Nature of the assay: Cell surface exposure of CALR (flow cytometry). As to conditions: 16 h. It is filed as cell-based, murine. The procedure: (§1) Multiple myeloma (MM) cells were seeded in 12-well plates (2×10^5 per well), treated with BTZ for 16 h at indicated concentrations, and then stained with Alexa Fluor647® anti-calreticulin antibody (ab196159, Abcam) and 7-AAD. Analysis of fluorescence intensity on 7-AAD negative cells was assessed using BD LRSFortessa™ X-20 flow cytometer.
(§2) MM cells were seeded in 12-well plates (2×10^5 per well), treated with BTZ for 16 h at indicated concentrations, and then stained with Alexa Fluor647® anti-calreticulin antibody (ab196159, Abcam) and 7-AAD. Analysis of fluorescence intensity on 7-AAD negative cells using BD LRSFortessa X-20 flow cytometer.

In assay [3] the test system is AMO1, H929 and KMS11 MM cells. Kind of assay: Cell surface exposure of CALR (flow cytometry). It is filed as cell-based, human. The procedure:
as §1, §2

For the compound `CC(C)C[C@H](NC(=O)[C@H](Cc1ccccc1)NC(=O)c1cnccn1)B(O)O` [BTZ, bortezomib], the “CD3+ T cell infiltration within tumors (IHC)” value in the assay on 5TGM1 tumors is “increased CD3+ T cell infiltration within tumors”. For the same compound, the “phagocytosis of BTZ-treated MM cells by DCs” value in the assay on 5TGM1 MM cells [1] (5TGM1 Calr^KO cells) is given as “calreticulin is necessary for induction of ICD by BTZ; also recorded: abrogated in vitro when DCs were co-cultured with CRT^KOMM cells; also recorded: inhibited”; in the assay on 5TGM1 MM cells [1] (5TGM1 WT, BTZ 16 h, then 4 h co-culture with mDCs) it was “engulfed by monocyte-derived DCs after 4 h of co-culture”. Further, the “CALR exposure on cell surface” value is “did not alter CALR exposure process” in the assay with 5TGM1 MM cells [2] (5TGM1 Sting^KO, BTZ 7.5 nM); “can induce hallmarks of ICD in human and murine MM cell lines; also recorded: dose-dependent increase of CTLR exposure” in the assay with 5TGM1 MM cells [2] (5TGM1 WT, BTZ 1-10 nM); “triggers calreticulin (CALR; also referred to as CRT) exposure by cancer cells; also recorded: can induce hallmarks of ICD in human and murine MM cell lines; also recorded: dose-dependent increase of CTLR exposure” in assay [3] (AMO1, H929 WT, BTZ 1-10 nM, 16 h, viable (7-AAD negative) cells); “did not alter CALR exposure process” in assay [3] (AMO1 STING^KO, BTZ 5 nM, 16 h); “did not increase CRT exposure; also recorded: GABARAP^KO blocks CALR exposure upon BTZ” in assay [3] (AMO1 and H929 GABARAP^KO clones); “did not induce CALR exposure in MM cells due to GABARAP deletion” in assay [3] (AMO1 and H929 GABARAP^KO clones, listed as Bortezomib). For the same compound, the “CALR exposure on cell surface” value in assay [3] (KMS11 cells (monoallelic deletion of GABARAP)) is recorded as “did not lead to an increase of CRT exposure”.
